Reference: patent US8304182B2, “Methods of identifying anti-cancer agents and uses thereof” (The Trustees of the University of Pennsylvania, priority 2003, dated 2012)

Tests used:
bax^−/−bak^−/− MEFs = type: cell-based, mouse
ATP = assay: Determination of cellular ATP; type: cell-based, mouse
[1] = type: cell-based, mouse
p53^−/− MEFs = type: cell-based, mouse
[2] = tested on: Mouse bone marrow derived macrophages; type: cell-based

O=c1[nH]ccc2c(O)cccc12 [DHIQ]
block of MNNG-induced cell death (bax^−/−bak^−/− MEFs): fully
effect on MNNG-induced cell death rate (parp-1^−/− MEFs): did not affect the cell death rate

O=C1NCCc2c(OCCCCN3CCCCC3)cccc21 [DPQ]
prevention of MNNG-induced ATP depletion (ATP): could be prevented
prevention of MNNG-induced NAD depletion [1]: could be prevented

COc1cc([C@@H]2c3cc4c(cc3[C@@H](O[C@@H]3O[C@@H]5CO[C@@H](C)O[C@H]5[C@H](O)[C@H]3O)[C@H]3COC(=O)[C@H]23)OCO4)cc(OC)c1O [etoposide]
cell death (cell survival by PI exclusion) (bax^−/−bak^−/− MEFs): resistant
cell death (cell survival by PI exclusion) (p53^−/− MEFs): resistant

CN[C@@H]1C[C@H]2O[C@@](C)([C@@H]1OC)n1c3ccccc3c3c4c(c5c6ccccc6n2c5c31)C(=O)NC4 [staurosporine]
TNFα production by macrophages [2]: failed to do so
cell death (bax^−/−bak^−/− MEFs): no cell death was observed
cell death (cell survival by PI exclusion) (p53^−/− MEFs): induced cell death
cell death (parp-1^−/− MEFs; parp-1^−/− cells, staurosporine, FIG. 3F): killed
